Reference: ChEMBL document CHEMBL1275577, “Study of the in vitro activities of rifaximin and comparator agents against 536 anaerobic intestinal bacteria from the perspective of potential utility in pathology involving bowel flora” (Antimicrob Agents Chemother, 2009)
Converted amounts (≈) assume the structure as drawn.

Assays:
Format in all cases: functional
[1] = system: Parabacteroides distasonis; assay: Antimicrobial activity against Parabacteroides distasonis by Wadsworth agar dilution method
Bacteroides fragilis = assay: Antimicrobial activity against Bacteroides fragilis by Wadsworth agar dilution method
[2] = system: Parabacteroides goldsteinii; assay: Antimicrobial activity against Parabacteroides goldsteinii by Wadsworth agar dilution method
Bacteroides stercoris = assay: Antimicrobial activity against Bacteroides stercoris by Wadsworth agar dilution method
Bilophila wadsworthia = assay: Antimicrobial activity against Bilophila wadsworthia by Wadsworth agar dilution method in presence of 1% pyruvic acid
Desulfovibrio piger = assay: Antimicrobial activity against Desulfovibrio piger by Wadsworth agar dilution method
Desulfovibrio sp. = assay: Antimicrobial activity against Desulfovibrio sp. by Wadsworth agar dilution method
Fusobacterium mortiferum [3] = assay: Antimicrobial activity against Fusobacterium mortiferum by Wadsworth agar dilution method in presence of beta-lactamase inhibitor Sulbactam
Porphyromonas = assay: Antimicrobial activity against Porphyromonas sp. by Wadsworth agar dilution method
[4] = system: Porphyromonas asaccharolytica; assay: Antimicrobial activity against Porphyromonas asaccharolyticus by Wadsworth agar dilution method
Porphyromonas somerae = assay: Antimicrobial activity against Porphyromonas somerae by Wadsworth agar dilution method
Porphyromonas uenonis = assay: Antimicrobial activity against Porphyromonas uenonis by Wadsworth agar dilution method
Prevotella corporis = assay: Antimicrobial activity against Prevotella corporis by Wadsworth agar dilution method
[Clostridium] innocuum = Antimicrobial activity against Clostridium innocuum by Wadsworth agar dilution method
[5] = system: Clostridium acetobutylicum; assay: Antimicrobial activity against Clostridium acetobutylicum by Wadsworth agar dilution method
Clostridium bartlettii = assay: Antimicrobial activity against Clostridium bartlettii by Wadsworth agar dilution method; settings: Intestinibacter bartlettii
Clostridium beijerinckii = assay: Antimicrobial activity against Clostridium beijerinckii by Wadsworth agar dilution method
Clostridium bolteae = assay: Antimicrobial activity against Clostridium bolteae by Wadsworth agar dilution method; settings: Enterocloster bolteae
Clostridium cocleatum = assay: Antimicrobial activity against Clostridium cocleatum by Wadsworth agar dilution method; settings: Thomasclavelia cocleata
Clostridium fallax = assay: Antimicrobial activity against Clostridium fallax by Wadsworth agar dilution method
Clostridium glycolicum = assay: Antimicrobial activity against Clostridium glycolicum by Wadsworth agar dilution method; settings: Terrisporobacter glycolicus
Clostridium nexile = assay: Antimicrobial activity against Clostridium nexile by Wadsworth agar dilution method; settings: Faecalimonas nexilis
[6] = system: Clostridium paraputrificum; assay: Antimicrobial activity against Clostridium paraputrificum by Wadsworth agar dilution method
Thomasclavelia ramosa = assay: Antimicrobial activity against Clostridium ramosum by Wadsworth agar dilution method
Fusobacterium mortiferum [7] = assay: Antimicrobial activity against Clostridium rectum by Wadsworth agar dilution method
[8] = system: Paeniclostridium sordellii; assay: Antimicrobial activity against Clostridium sordellii by Wadsworth agar dilution method; settings: Paraclostridium sordellii
Clostridium spiroforme = assay: Antimicrobial activity against Clostridium spiroforme by Wadsworth agar dilution method; settings: Thomasclavelia spiroformis
Clostridium sporogenes = assay: Antimicrobial activity against Clostridium sporogenes by Wadsworth agar dilution method
Schaalia odontolytica = assay: Antimicrobial activity against Actinomyces odontolyticus by Wadsworth agar dilution method
Actinomyces viscosus = assay: Antimicrobial activity against Actinomyces viscosus by Wadsworth agar dilution method
Bifidobacterium bifidum = assay: Antimicrobial activity against Bifidobacterium bifidum by Wadsworth agar dilution method
Bifidobacterium breve = assay: Antimicrobial activity against Bifidobacterium breve by Wadsworth agar dilution method
Bifidobacterium longum = assay: Antimicrobial activity against Bifidobacterium longum by Wadsworth agar dilution method
[9] = Antimicrobial activity against Bifidobacterium pseudocatenulatum by Wadsworth agar dilution method
[10] = system: Catenibacterium mitsuokai; assay: Antimicrobial activity against Catenibacterium mitsuokai by Wadsworth agar dilution method
[11] = system: Pseudoramibacter alactolyticus; assay: Antimicrobial activity against Eubacterium alactolyticum by Wadsworth agar dilution method
Eubacterium callanderi = assay: Antimicrobial activity against Eubacterium callanderi by Wadsworth agar dilution method
[12] = system: Lactobacillus catenaformis; assay: Antimicrobial activity against Lactobacillus catenaformis by Wadsworth agar dilution method; settings: Eggerthia catenaformis
[13] = system: Limosilactobacillus fermentum; assay: Antimicrobial activity against Lactobacillus fermentum by Wadsworth agar dilution method
Lactobacillus sp. = assay: Antimicrobial activity against Lactobacillus sp. by Wadsworth agar dilution method
Propionibacterium avidum = assay: Antimicrobial activity against Propionibacterium avidum by Wadsworth agar dilution method; settings: Cutibacterium avidum
Anaerococcus prevotii = assay: Antimicrobial activity against Anaerococcus prevotii by Wadsworth agar dilution method
Finegoldia magna = assay: Antimicrobial activity against Finegoldia magna by Wadsworth agar dilution method
[14] = system: Ruminococcus flavefaciens; assay: Antimicrobial activity against Ruminococcus flavefaciens by Wadsworth agar dilution method
Ruminococcus gnavus = assay: Antimicrobial activity against Ruminococcus gnavus by Wadsworth agar dilution method; settings: Mediterraneibacter gnavus
Ruminococcus obeum = assay: Antimicrobial activity against Ruminococcus obeum by Wadsworth agar dilution method; settings: Blautia obeum
Ruminococcus torques = assay: Antimicrobial activity against Ruminococcus torques by Wadsworth agar dilution method; settings: Mediterraneibacter torques

CN[C@H](CC(C)C)C(=O)N[C@H]1C(=O)N[C@@H](CC(N)=O)C(=O)N[C@H]2C(=O)N[C@H]3C(=O)N[C@H](C(=O)N[C@H](C(=O)O)c4cc(O)cc(O)c4-c4cc3ccc4O)[C@H](O)c3ccc(c(Cl)c3)Oc3cc2cc(c3O[C@@H]2O[C@H](CO)[C@@H](O)[C@H](O)[C@H]2O[C@H]2C[C@](C)(N)[C@H](O)[C@H](C)O2)Oc2ccc(cc2Cl)[C@H]1O [VANCOMYCIN]
MIC50 [1]: 128 mg/L (≈ 88.3 µM)
MIC90 [1]: 128 mg/L (≈ 88.3 µM)
MIC50 (Bacteroides fragilis): 64 mg/L (≈ 44.2 µM)
MIC90 (Bacteroides fragilis): 128 mg/L (≈ 88.3 µM)
MIC50 [2]: 128 mg/L (≈ 88.3 µM)
MIC90 [2]: 128 mg/L (≈ 88.3 µM)
MIC (Bacteroides stercoris): 64 mg/L (≈ 44.2 µM)
MIC50 (Bacteroides stercoris): 64 mg/L (≈ 44.2 µM)
MIC90 (Bacteroides stercoris): 128 mg/L (≈ 88.3 µM)
MIC (Bilophila wadsworthia): 64 mg/L
MIC50 (Bilophila wadsworthia): 64 mg/L
MIC90 (Bilophila wadsworthia): 128 mg/L
MIC50 (Desulfovibrio piger): > 1020 mg/L
MIC90 (Desulfovibrio piger): > 1020 mg/L
MIC50 (Desulfovibrio sp.): > 1020 mg/L
MIC90 (Desulfovibrio sp.): > 1020 mg/L
MIC50 (Fusobacterium mortiferum [3]): 256 mg/L
MIC90 (Fusobacterium mortiferum [3]): > 1020 mg/L
MIC50 (Porphyromonas): 4 mg/L (≈ 2.76 µM)
MIC90 (Porphyromonas): 8 mg/L (≈ 5.52 µM)
MIC50 [4]: 4 mg/L (≈ 2.76 µM)
MIC90 [4]: 8 mg/L (≈ 5.52 µM)
MIC50 (Porphyromonas somerae): 4 mg/L (≈ 2.76 µM)
MIC90 (Porphyromonas somerae): 8 mg/L (≈ 5.52 µM)
MIC50 (Porphyromonas uenonis): 4 mg/L (≈ 2.76 µM)
MIC90 (Porphyromonas uenonis): 8 mg/L (≈ 5.52 µM)
MIC50 (Prevotella corporis): 128 mg/L (≈ 88.3 µM)
MIC90 (Prevotella corporis): 256 mg/L (≈ 177 µM)
MIC ([Clostridium] innocuum): 16 mg/L (≈ 11 µM)
MIC50 ([Clostridium] innocuum): 16 mg/L (≈ 11 µM)
MIC90 ([Clostridium] innocuum): 256 mg/L (≈ 177 µM)
MIC50 [5]: 1 mg/L (≈ 0.69 µM)
MIC90 [5]: 4 mg/L (≈ 2.76 µM)
MIC50 (Clostridium bartlettii): 1 mg/L (≈ 0.69 µM)
MIC90 (Clostridium bartlettii): 4 mg/L (≈ 2.76 µM)
MIC50 (Clostridium beijerinckii): 1 mg/L (≈ 0.69 µM)
MIC90 (Clostridium beijerinckii): 4 mg/L (≈ 2.76 µM)
MIC50 (Clostridium bolteae): 1 mg/L (≈ 0.69 µM)
MIC90 (Clostridium bolteae): 4 mg/L (≈ 2.76 µM)
MIC50 (Clostridium cocleatum): 1 mg/L (≈ 0.69 µM)
MIC90 (Clostridium cocleatum): 4 mg/L (≈ 2.76 µM)
MIC50 (Clostridium fallax): 1 mg/L (≈ 0.69 µM)
MIC90 (Clostridium fallax): 4 mg/L (≈ 2.76 µM)
MIC50 (Clostridium glycolicum): 1 mg/L (≈ 0.69 µM)
MIC90 (Clostridium glycolicum): 4 mg/L (≈ 2.76 µM)
MIC50 (Clostridium nexile): 1 mg/L (≈ 0.69 µM)
MIC90 (Clostridium nexile): 4 mg/L (≈ 2.76 µM)
MIC50 [6]: 1 mg/L (≈ 0.69 µM)
MIC90 [6]: 4 mg/L (≈ 2.76 µM)
MIC50 (Thomasclavelia ramosa): 1 mg/L (≈ 0.69 µM)
MIC90 (Thomasclavelia ramosa): 4 mg/L (≈ 2.76 µM)
MIC50 (Fusobacterium mortiferum [7]): 1 mg/L (≈ 0.69 µM)
MIC90 (Fusobacterium mortiferum [7]): 4 mg/L (≈ 2.76 µM)
MIC50 [8]: 1 mg/L (≈ 0.69 µM)
MIC90 [8]: 4 mg/L (≈ 2.76 µM)
MIC50 (Clostridium spiroforme): 1 mg/L (≈ 0.69 µM)
MIC90 (Clostridium spiroforme): 4 mg/L (≈ 2.76 µM)
MIC50 (Clostridium sporogenes): 1 mg/L (≈ 0.69 µM)
MIC90 (Clostridium sporogenes): 4 mg/L (≈ 2.76 µM)
MIC50 (Schaalia odontolytica): 1 mg/L (≈ 0.69 µM)
MIC90 (Schaalia odontolytica): 64 mg/L (≈ 44.2 µM)
MIC50 (Actinomyces viscosus): 1 mg/L (≈ 0.69 µM)
MIC90 (Actinomyces viscosus): 64 mg/L (≈ 44.2 µM)
MIC50 (Bifidobacterium bifidum): 1 mg/L (≈ 0.69 µM)
MIC90 (Bifidobacterium bifidum): 64 mg/L (≈ 44.2 µM)
MIC50 (Bifidobacterium breve): 1 mg/L (≈ 0.69 µM)
MIC90 (Bifidobacterium breve): 64 mg/L (≈ 44.2 µM)
MIC50 (Bifidobacterium longum): 1 mg/L (≈ 0.69 µM)
MIC90 (Bifidobacterium longum): 64 mg/L (≈ 44.2 µM)
MIC50 [9]: 1 mg/L (≈ 0.69 µM)
MIC90 [9]: 64 mg/L (≈ 44.2 µM)
MIC50 [10]: 1 mg/L (≈ 0.69 µM)
MIC90 [10]: 64 mg/L (≈ 44.2 µM)
MIC50 [11]: 1 mg/L (≈ 0.69 µM)
MIC90 [11]: 64 mg/L (≈ 44.2 µM)
MIC50 (Eubacterium callanderi): 1 mg/L (≈ 0.69 µM)
MIC90 (Eubacterium callanderi): 64 mg/L (≈ 44.2 µM)
MIC50 [12]: 1 mg/L (≈ 0.69 µM)
MIC90 [12]: 64 mg/L (≈ 44.2 µM)
MIC50 [13]: 1 mg/L (≈ 0.69 µM)
MIC90 [13]: 64 mg/L (≈ 44.2 µM)
MIC50 (Lactobacillus sp.): 1 mg/L (≈ 0.69 µM)
MIC90 (Lactobacillus sp.): 64 mg/L (≈ 44.2 µM)
MIC50 (Propionibacterium avidum): 1 mg/L (≈ 0.69 µM)
MIC90 (Propionibacterium avidum): 64 mg/L (≈ 44.2 µM)
MIC50 (Anaerococcus prevotii): 0.5 mg/L (≈ 0.345 µM)
MIC90 (Anaerococcus prevotii): 1 mg/L (≈ 0.69 µM)
MIC50 (Finegoldia magna): 0.5 mg/L (≈ 0.345 µM)
MIC90 (Finegoldia magna): 1 mg/L (≈ 0.69 µM)
MIC50 [14]: 0.5 mg/L (≈ 0.345 µM)
MIC90 [14]: 1 mg/L (≈ 0.69 µM)
MIC50 (Ruminococcus gnavus): 0.5 mg/L (≈ 0.345 µM)
MIC90 (Ruminococcus gnavus): 1 mg/L (≈ 0.69 µM)
MIC50 (Ruminococcus obeum): 0.5 mg/L (≈ 0.345 µM)
MIC90 (Ruminococcus obeum): 1 mg/L (≈ 0.69 µM)
MIC50 (Ruminococcus torques): 0.5 mg/L (≈ 0.345 µM)
MIC90 (Ruminococcus torques): 1 mg/L (≈ 0.69 µM)
